Test results published in PubChem BioAssay (NCI).
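Where inhibition never reached the appropriate level, the endpoint shown equals the highest concentration tested. Otherwise, values were interpolated linearly from a five-concentration, 48-hour dose response in 96-well plates. The concentration for full growth arrest is given as TGI.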

Columns and labels:
Assay in all cases: DTP human tumour cell line panel, 48 h
SR leukemia = tested on: SR leukemia
BT-549 breast = tested on: BT-549 breast
SN12C renal = tested on: SN12C renal
UO-31 renal = tested on: UO-31 renal
PC-3 prostate = tested on: PC-3 prostate
HS 578T breast = tested on: HS 578T breast
U251 CNS = tested on: U251 CNS
KM12 colon = tested on: KM12 colon
A549 NSCLC = tested on: A549 NSCLC
786-0 renal = tested on: 786-0 renal
IGROV1 ovarian = tested on: IGROV1 ovarian

| SMILES | TGI (SR leukemia) [µM] | TGI (BT-549 breast) [µM] | TGI (SN12C renal) [µM] | TGI (UO-31 renal) [µM] | TGI (PC-3 prostate) [µM] | TGI (HS 578T breast) [µM] | TGI (U251 CNS) [µM] | TGI (KM12 colon) [µM] | TGI (A549 NSCLC) [µM] | TGI (786-0 renal) [µM] | TGI (IGROV1 ovarian) [µM] |
| --- | --- | --- | --- | --- | --- | --- | --- | --- | --- | --- | --- |
| CCN(CC)P1(=S)Oc2ccc3ccccc3c2-c2c(ccc3ccccc23)O1 | > 100 | > 100 | > 100 | > 100 | > 100 | > 100 | > 100 | > 100 | > 100 | > 100 | > 100 |
| Cc1ccc(Nc2ncnc3sc(SCc4ccccc4)nc23)cc1 | > 100 | > 100 | > 100 | > 100 | > 100 | > 100 | > 100 | > 100 | > 100 | > 100 | > 100 |
| COc1ccccc1NC(=S)N/N=C(/c1ccccc1)c1ccccn1 | 1.34 | 23 | 16.7 | 14.1 | 16.7 | 53.9 | 14.9 | 14 | 16.3 | 18.7 | 17.6 |
| Brc1ccc(-c2ccc(-c3ccc(Br)s3)s2)s1 | > 100 | > 100 | > 100 | > 100 | > 100 | > 100 | > 100 | > 100 | > 100 | > 100 | > 100 |
| CC(C)(C)c1cc(C2COC(=O)COCCOCC(=O)OCCOCCO2)cc(C(C)(C)C)c1O (stereo unspecified) | 64.2 | > 77.7 | 44.6 | 30.5 | 63.3 | 77.7 | > 100 | > 100 | > 100 | 32.5 | > 100 |
| CCOC(=O)c1cc(-c2ccc(OC)c(OC)c2)cn1C | > 10 | > 10 | > 10 | > 10 | > 10 | > 10 | > 10 | > 10 | > 10 | > 10 | > 10 |
| COC(=O)c1ccc(/C=C/C2=CC(=O)C=CC2=O)cc1 | 12.7 | 26.6 | 58 | 17.9 | 60.6 | > 100 | 41.7 | 31.6 | > 100 | 26.1 | 39.1 |
| COc1ccc(N=NN2CCCC2)cc1 | > 100 | 60.6 | 55 | > 100 | > 100 | > 100 | > 100 | 14.7 | > 100 | 32.7 | 41 |
| OC1(c2ccc(Cl)cc2)c2ccccc2C2=Nc3ccccc3CN21 (stereo unspecified) | > 84.8 | > 100 | > 79.6 | > 100 | > 100 | 74.1 | > 100 | > 75.4 | 28.6 | 25.8 | > 81.3 |
| CCOC(=O)c1c(OCC)[nH]c(=O)c(C(c2ccc(F)cc2)c2c(O)c(C(=O)OCC)c(OCC)[nH]c2=O)c1O | 29 | 23.6 | 30.2 | 25.7 | 34.6 | > 100 | 36.3 | 37.7 | 29.3 | 39.7 | 30.3 |
| COC(=O)c1c(C)nc(C)c(N=O)c1-c1ccccc1C(F)(F)F | > 100 | 33.6 | 38.6 | 37.1 | > 100 | 44.8 | 34.5 | 35.9 | > 100 | 31.5 | 33.9 |
